Here are results for two molecules from patent US6770467B2, “Screening method for ligands with class II P13 kinase modulating activity” (Ludwig Institute for Cancer Research, priority 1997, dated 2004).

In one test the target is p110α (UniProt P32871). In words: PI 3-kinase lipid kinase assay with recombinant GST-p110α, PtdIns as substrate. The test is classed as biochemical.
The target of a further test is T1, PI3K-C2α (Homo sapiens, UniProt O00443).
T1 construct: made in house; host or cells: Sf9 insect cells (baculovirus, pAcGex vector)
T1 sequence (O00443 148-1686): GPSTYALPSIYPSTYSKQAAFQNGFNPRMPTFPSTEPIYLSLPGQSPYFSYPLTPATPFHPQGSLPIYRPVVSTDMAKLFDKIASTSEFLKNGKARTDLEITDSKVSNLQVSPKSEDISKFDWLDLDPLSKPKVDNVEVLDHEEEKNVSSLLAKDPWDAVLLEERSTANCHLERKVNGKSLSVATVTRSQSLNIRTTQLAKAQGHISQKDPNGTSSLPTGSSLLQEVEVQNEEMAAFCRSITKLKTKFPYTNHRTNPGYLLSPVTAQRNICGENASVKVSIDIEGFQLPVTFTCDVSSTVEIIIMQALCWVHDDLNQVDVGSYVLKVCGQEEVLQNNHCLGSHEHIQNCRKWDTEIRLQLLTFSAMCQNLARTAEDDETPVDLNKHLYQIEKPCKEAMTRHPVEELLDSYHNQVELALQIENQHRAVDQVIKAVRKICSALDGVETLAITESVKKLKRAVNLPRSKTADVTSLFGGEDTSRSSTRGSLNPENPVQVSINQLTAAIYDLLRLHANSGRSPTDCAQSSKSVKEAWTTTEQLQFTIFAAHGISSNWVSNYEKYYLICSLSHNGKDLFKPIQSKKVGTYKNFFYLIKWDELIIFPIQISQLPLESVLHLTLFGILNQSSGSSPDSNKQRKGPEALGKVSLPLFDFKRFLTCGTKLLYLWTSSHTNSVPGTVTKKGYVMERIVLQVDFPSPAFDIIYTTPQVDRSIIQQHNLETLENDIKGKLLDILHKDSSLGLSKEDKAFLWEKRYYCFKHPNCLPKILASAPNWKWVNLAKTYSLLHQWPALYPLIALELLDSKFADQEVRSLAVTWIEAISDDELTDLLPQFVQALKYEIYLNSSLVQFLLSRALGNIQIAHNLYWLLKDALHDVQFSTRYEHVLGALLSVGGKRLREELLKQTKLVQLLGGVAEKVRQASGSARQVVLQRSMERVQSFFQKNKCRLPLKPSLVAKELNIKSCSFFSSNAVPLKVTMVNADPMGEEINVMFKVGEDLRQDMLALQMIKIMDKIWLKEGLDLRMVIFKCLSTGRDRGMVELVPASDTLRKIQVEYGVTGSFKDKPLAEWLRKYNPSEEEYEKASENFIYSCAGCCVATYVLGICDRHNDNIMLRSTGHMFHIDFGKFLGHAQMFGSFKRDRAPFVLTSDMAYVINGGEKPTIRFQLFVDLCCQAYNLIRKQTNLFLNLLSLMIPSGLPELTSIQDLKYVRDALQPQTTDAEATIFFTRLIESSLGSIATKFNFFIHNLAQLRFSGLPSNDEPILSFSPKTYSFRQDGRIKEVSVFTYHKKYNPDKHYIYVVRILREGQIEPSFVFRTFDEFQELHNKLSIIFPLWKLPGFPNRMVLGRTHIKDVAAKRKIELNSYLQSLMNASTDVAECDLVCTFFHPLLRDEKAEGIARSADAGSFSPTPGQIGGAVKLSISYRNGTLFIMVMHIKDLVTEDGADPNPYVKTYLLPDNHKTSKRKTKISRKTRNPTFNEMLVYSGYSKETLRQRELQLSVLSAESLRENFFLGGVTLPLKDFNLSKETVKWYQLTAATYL
In words: PI 3-kinase lipid kinase assay with recombinant GST-PI3K-C2α, PtdIns as substrate. The test is classed as biochemical.

Structures are written as SMILES. pIC50: −log10 of the molar value. Where two headings read alike, the source gives them in different places.

Procedure for PI3K-C2α: Typically, PI 3-kinase assays were performed in a total volume of 50 μl containing 20 mM Hepes pH7.4. 100 mM NaCl, 0.1 mM EGTA, 0.1% β-mercaptoethanol, and 200 μM phosphoinositide. After preincubating sonicated lipid with sample for 10 minutes, the reactions were initiated upon the addition of 2.5 mM MgCl2, 100 mM ATP (0.2 μCiγ[^32 P] ATP). Assays were incubated at 30° C. for 20 minutes and terminated with acidified chloroform:methanol. The extracted lipid products were analysed by thin layer chromatography using Silica gel 60 plates and chloroform:methanol:4M ammonium hydroxide (45:35:10) for assays examining phosphorylation of Ptdlns. When separations of PtdIns 3P, PtdIns (3,4) P2 and PItdIns (3,4,5) P3 was required, propan-1-ol: 2M acetic acid (65:35) was used. Phosphorylated lipids were visualised by either autoradiography or by phosphoimage analysis (Molecular Dynamics).
The enzymatic activity and substrate specificity were investigated and compared to that of GST-p110α expressed in the same system.
(§1) The effect of these inhibitors on the lipid kinase activity of PI3K-C2α was examined, using PtdIns as a substrate, in the presence of increasing concentrations of each inhibitor.
Procedure for p110α: Typically, PI 3-kinase assays were performed in a total volume of 50 μl containing 20 mM Hepes pH7.4. 100 mM NaCl, 0.1 mM EGTA, 0.1% β-mercaptoethanol, and 200 μM phosphoinositide. After preincubating sonicated lipid with sample for 10 minutes, the reactions were initiated upon the addition of 2.5 mM MgCl2, 100 mM ATP (0.2 μCiγ[^32 P] ATP). Assays were incubated at 30° C. for 20 minutes and terminated with acidified chloroform:methanol. The extracted lipid products were analysed by thin layer chromatography using Silica gel 60 plates and chloroform:methanol:4M ammonium hydroxide (45:35:10) for assays examining phosphorylation of Ptdlns. When separations of PtdIns 3P, PtdIns (3,4) P2 and PItdIns (3,4,5) P3 was required, propan-1-ol: 2M acetic acid (65:35) was used. Phosphorylated lipids were visualised by either autoradiography or by phosphoimage analysis (Molecular Dynamics). Assays were linear with respect to time and enzyme addition.
as §1

For the molecule `O=c1cc(N2CCOCC2)oc2c(-c3ccccc3)cccc12` [LY294002, 2-(4-morpholinyl)-8-phenyl-4H-1-benzopyran-4-one], the “concentration giving maximal inhibition of p110α” value on p110α (LY294002, FIG. 5B) was 300 µM. Moreover, at PI3K-C2α, the pIC50 (usually the negative decadic logarithm of the IC50, by convention in mol/L) was 4.70. Besides, the “difference in sensitivity between PI3K-C2α and p110α” value at PI3K-C2α (LY294002, PI3K-C2α less sensitive than p110α) is given as “approximately one order of magnitude”. Moreover, the “concentration giving maximal attenuation of PI3K-C2α lipid kinase activity” value on PI3K-C2α (LY294002, PtdIns substrate) is listed as 2 mM.
Take `COC[C@H]1OC(=O)c2coc3c2[C@@]1(C)C1=C(C3=O)[C@@H]2CCC(=O)[C@@]2(C)C[C@H]1OC(C)=O` [Wortmannin]: the negative logarithm of the IC50 (pIC50) on p110α (read-out: IC50 of p110α lipid kinase activity, Wortmannin, FIG. 5A) is 8.52; on PI3K-C2α (Wortmannin, PtdIns substrate, FIG. 5A), 6.70.
